Source: article PMC10960705 (Cell chemical biology, 2023)

What was measured:
Assay type in all cases: cell-based
[1] = target: peptidyl-prolyl cis/trans isomerase PIN1 (Homo sapiens, UniProt Q13526); test: TMT-ABPP dose-response competition with DBIA probe in lysate
KRAS^G12C = KRAS^G12C (Homo sapiens, UniProt P01116, G12C); test: TMT-ABPP competition with DBIA probe in HCC44 lysate, […], […] hr
VLDLR = VLDLR (Homo sapiens, UniProt P98155); test: TMT-ABPP competition with DBIA probe in lysate

Sequence of peptidyl-prolyl cis/trans isomerase PIN1 (Q13526 whole entry): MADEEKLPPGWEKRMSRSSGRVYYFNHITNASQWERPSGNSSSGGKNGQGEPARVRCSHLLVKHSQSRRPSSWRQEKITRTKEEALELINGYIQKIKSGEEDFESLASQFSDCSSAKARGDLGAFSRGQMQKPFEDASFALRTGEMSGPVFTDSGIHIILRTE

Structure (SMILES): CC(C)(C)CN(C(=O)CCl)C1CCS(=O)(=O)C1 (stereo not drawn) [Sulfopin]
- TMT-ABPP dose-response competition with DBIA probe in lysate [1]: Sulfopin is the most potent among the four whereas CL41 is the least

Structure (SMILES): C=CC(=O)N1CCN(c2ncnc3c(F)c(-c4c(O)cccc4F)c(Cl)cc23)CC1 [ARS-1620]
- TMT-ABPP competition with DBIA probe in HCC44 lysate, 50 μM, 1 hr (KRAS^G12C): 2.7 competition ratio (CR) at 50 μM

Structure (SMILES): C=CC(=O)N1CCCC(n2ccnn2)CC1 (stereo not drawn) [AC19, 1-(4-(1H-1,2,3-triazol-1-yl)azepan-1-yl)prop-2-en-1-one]
- TMT-ABPP competition with DBIA probe in lysate (VLDLR): reside in their respective EGF-like domains and were all exclusively and significantly engaged by AC19
